Laboratory results published in ChEMBL document CHEMBL5696441 (Nat Chem Biol, 2011).

Experiments:
[1] = molecular target: Interleukin-1 receptor-associated kinase 3 (Homo sapiens) (UniProt Q9Y616); experiment: Inhibition of IRAK3 (unknown origin) assessed as remaining activity at 1 uM by Kinome scan method relative to control
[2] = molecular target: Myosin-IIIb (Homo sapiens) (UniProt Q8WXR4); experiment: Inhibition of MYO3B (unknown origin) assessed as remaining activity at 1 uM by Kinome scan method relative to control
Sequence of Myosin-IIIb (Homo sapiens) (Q8WXR4 whole entry): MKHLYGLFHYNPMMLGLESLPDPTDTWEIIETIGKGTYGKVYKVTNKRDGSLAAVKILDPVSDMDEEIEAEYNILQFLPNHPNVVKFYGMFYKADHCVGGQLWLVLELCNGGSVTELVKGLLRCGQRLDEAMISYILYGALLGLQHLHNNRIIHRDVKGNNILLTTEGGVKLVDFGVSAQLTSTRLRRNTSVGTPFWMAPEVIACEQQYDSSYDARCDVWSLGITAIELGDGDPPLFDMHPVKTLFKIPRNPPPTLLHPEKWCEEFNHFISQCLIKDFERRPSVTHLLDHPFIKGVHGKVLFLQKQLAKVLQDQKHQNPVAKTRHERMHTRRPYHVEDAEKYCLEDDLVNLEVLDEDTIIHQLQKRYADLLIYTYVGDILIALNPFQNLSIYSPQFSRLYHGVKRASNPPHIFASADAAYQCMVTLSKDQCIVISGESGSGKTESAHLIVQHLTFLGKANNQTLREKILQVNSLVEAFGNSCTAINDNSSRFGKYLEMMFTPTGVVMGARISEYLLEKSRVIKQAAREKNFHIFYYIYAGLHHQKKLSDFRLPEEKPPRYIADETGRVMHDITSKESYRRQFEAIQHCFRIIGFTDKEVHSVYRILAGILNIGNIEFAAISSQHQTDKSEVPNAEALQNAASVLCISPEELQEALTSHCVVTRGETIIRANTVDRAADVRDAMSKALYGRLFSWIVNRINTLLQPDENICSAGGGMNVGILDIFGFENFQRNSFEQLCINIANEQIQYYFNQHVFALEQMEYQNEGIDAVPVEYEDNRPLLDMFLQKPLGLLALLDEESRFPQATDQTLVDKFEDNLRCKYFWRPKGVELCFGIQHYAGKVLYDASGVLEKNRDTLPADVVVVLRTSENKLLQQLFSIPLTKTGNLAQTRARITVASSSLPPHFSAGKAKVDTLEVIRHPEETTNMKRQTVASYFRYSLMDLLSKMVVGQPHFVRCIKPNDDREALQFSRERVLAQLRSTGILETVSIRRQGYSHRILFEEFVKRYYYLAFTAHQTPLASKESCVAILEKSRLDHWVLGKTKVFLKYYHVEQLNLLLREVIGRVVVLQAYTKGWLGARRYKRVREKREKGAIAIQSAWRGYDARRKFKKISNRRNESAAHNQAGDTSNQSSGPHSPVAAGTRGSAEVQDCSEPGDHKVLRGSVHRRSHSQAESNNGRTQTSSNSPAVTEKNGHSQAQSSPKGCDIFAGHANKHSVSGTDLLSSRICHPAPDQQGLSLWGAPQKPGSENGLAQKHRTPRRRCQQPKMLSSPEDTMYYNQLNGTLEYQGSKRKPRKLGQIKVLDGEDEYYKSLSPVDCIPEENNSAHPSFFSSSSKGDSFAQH

[3] = molecular target: T1, Serine/threonine-protein kinase NLK (Homo sapiens) (UniProt Q9UBE8); experiment: Inhibition of NLK (unknown origin) assessed as remaining activity at 1 uM by Kinome scan method relative to control
T1 sequence (whole entry): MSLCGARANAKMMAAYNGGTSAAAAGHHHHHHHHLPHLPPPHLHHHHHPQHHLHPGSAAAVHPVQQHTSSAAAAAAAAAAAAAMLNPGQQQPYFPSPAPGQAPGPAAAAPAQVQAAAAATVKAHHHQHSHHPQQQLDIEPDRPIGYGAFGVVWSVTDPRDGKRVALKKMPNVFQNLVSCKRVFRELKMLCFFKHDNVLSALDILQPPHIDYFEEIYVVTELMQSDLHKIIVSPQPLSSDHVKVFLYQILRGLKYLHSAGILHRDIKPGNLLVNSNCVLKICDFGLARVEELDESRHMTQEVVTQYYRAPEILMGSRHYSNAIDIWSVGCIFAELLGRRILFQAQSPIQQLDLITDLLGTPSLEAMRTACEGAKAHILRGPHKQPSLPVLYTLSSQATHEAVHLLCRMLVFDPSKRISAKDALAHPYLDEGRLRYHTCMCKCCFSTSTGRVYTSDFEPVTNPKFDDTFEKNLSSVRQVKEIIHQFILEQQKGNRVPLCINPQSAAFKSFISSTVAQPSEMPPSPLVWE

[4] = molecular target: Cyclin-dependent kinase 16 (Homo sapiens) (UniProt Q00536); experiment: Inhibition of PCTK1 (unknown origin) assessed as remaining activity at 1 uM by Kinome scan method relative to control
Sequence of Cyclin-dependent kinase 16 (Homo sapiens) (Q00536 whole entry): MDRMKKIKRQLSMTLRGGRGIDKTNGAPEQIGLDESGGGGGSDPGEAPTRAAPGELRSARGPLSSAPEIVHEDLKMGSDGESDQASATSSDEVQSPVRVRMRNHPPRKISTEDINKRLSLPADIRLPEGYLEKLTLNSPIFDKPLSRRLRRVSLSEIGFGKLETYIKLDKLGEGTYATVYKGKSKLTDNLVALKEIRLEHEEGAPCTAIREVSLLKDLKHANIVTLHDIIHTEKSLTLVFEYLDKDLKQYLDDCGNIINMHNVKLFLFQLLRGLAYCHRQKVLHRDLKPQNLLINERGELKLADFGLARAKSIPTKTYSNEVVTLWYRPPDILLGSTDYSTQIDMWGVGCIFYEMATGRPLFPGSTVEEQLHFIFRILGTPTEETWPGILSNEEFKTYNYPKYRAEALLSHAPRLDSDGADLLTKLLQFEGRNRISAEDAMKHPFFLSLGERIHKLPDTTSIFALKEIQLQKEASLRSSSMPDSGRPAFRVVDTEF

[5] = test system: Tyrosine-protein kinase ABL1 (Homo sapiens), P00519 [F317L]; experiment: Inhibition of ABL1 F317L mutant (unknown origin) assessed as remaining activity at 1 uM by Kinome scan method relative to control
[6] = molecular target: Mitogen-activated protein kinase kinase kinase 12 (Homo sapiens) (UniProt Q12852); experiment: Inhibition of DLK (unknown origin) assessed as remaining activity at 1 uM by Kinome scan method relative to control
Sequence of Mitogen-activated protein kinase kinase kinase 12 (Homo sapiens) (Q12852 whole entry, the tested form may be a part): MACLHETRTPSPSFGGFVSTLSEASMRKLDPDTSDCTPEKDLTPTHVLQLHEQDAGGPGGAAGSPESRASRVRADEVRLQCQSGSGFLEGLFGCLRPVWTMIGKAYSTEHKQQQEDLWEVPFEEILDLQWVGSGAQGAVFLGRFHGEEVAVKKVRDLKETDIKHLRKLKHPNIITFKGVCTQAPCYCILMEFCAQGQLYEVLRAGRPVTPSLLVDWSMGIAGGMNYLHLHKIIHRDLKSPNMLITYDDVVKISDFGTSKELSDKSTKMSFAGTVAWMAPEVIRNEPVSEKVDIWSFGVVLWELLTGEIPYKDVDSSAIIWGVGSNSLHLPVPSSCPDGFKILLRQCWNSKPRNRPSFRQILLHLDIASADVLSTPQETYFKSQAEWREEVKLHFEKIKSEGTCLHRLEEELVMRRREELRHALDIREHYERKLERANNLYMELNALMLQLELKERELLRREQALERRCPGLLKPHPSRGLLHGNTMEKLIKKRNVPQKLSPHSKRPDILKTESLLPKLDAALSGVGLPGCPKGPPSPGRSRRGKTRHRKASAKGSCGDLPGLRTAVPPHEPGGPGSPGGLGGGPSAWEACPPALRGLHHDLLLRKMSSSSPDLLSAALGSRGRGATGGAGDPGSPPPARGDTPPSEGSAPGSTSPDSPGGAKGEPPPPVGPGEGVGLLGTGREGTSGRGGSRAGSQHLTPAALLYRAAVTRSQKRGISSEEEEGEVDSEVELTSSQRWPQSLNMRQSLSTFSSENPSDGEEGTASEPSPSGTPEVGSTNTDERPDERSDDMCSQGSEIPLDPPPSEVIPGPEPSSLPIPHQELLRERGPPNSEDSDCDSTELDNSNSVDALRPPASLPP

[7] = molecular target: T2, Tyrosine-protein kinase JAK3 (Homo sapiens) (UniProt P52333); experiment: Inhibition of JAK3 JH1 domain (unknown origin) assessed as remaining activity at 1 uM by Kinome scan method relative to control
T2 sequence (whole entry): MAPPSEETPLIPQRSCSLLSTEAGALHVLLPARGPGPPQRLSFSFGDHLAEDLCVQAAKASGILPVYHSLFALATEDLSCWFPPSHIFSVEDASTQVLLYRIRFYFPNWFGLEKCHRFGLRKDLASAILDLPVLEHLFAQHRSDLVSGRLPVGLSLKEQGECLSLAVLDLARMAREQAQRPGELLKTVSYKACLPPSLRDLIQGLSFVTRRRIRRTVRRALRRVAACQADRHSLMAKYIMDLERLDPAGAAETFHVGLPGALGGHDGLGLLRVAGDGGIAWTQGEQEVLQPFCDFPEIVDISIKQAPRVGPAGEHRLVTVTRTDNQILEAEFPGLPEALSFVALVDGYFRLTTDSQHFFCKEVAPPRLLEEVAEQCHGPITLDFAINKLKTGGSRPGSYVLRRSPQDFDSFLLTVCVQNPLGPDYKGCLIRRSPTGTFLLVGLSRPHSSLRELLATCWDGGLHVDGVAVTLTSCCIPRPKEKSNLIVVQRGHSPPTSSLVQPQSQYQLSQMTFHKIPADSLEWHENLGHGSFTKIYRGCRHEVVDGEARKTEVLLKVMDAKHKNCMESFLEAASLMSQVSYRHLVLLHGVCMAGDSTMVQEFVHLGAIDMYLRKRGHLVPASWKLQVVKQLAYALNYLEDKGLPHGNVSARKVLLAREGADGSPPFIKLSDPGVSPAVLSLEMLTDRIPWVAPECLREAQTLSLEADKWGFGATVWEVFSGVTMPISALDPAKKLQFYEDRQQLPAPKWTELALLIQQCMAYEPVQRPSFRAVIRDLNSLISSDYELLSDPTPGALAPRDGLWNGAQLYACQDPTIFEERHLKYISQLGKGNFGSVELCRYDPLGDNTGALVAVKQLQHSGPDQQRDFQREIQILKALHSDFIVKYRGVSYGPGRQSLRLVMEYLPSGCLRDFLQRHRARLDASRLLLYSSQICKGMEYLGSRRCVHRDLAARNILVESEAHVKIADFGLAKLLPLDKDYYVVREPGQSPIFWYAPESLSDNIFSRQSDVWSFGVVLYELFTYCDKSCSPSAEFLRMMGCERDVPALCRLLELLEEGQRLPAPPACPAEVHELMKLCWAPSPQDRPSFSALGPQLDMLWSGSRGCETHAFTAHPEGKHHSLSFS

[8] = molecular target: LIM domain kinase 2 (Homo sapiens) (UniProt P53671); experiment: Inhibition of LIMK2 (unknown origin) assessed as remaining activity at 1 uM by Kinome scan method relative to control
Sequence of LIM domain kinase 2 (Homo sapiens) (P53671 whole entry, looked up, the tested form may be a part): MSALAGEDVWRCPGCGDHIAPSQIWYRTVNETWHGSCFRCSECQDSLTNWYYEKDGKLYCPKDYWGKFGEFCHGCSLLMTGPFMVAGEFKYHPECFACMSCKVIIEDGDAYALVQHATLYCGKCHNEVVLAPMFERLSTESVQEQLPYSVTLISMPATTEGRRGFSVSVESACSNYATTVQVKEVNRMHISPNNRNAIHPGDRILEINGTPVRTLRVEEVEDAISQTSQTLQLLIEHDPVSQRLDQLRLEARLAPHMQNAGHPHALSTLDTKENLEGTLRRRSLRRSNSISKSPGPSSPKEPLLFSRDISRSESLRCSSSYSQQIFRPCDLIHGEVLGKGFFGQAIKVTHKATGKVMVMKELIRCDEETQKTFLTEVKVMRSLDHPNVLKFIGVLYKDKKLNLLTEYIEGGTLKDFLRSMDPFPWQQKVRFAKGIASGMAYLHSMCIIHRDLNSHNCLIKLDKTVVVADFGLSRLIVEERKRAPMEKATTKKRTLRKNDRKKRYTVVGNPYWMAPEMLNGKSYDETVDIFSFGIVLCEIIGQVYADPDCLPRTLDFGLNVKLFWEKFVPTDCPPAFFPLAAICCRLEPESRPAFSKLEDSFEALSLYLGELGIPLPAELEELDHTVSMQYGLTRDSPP

[9] = molecular target: Serine/threonine-protein kinase RIO2 (Homo sapiens) (UniProt Q9BVS4); experiment: Inhibition of RIOK2 (unknown origin) assessed as remaining activity at 1 uM by Kinome scan method relative to control
Sequence of Serine/threonine-protein kinase RIO2 (Homo sapiens) (Q9BVS4 whole entry, looked up): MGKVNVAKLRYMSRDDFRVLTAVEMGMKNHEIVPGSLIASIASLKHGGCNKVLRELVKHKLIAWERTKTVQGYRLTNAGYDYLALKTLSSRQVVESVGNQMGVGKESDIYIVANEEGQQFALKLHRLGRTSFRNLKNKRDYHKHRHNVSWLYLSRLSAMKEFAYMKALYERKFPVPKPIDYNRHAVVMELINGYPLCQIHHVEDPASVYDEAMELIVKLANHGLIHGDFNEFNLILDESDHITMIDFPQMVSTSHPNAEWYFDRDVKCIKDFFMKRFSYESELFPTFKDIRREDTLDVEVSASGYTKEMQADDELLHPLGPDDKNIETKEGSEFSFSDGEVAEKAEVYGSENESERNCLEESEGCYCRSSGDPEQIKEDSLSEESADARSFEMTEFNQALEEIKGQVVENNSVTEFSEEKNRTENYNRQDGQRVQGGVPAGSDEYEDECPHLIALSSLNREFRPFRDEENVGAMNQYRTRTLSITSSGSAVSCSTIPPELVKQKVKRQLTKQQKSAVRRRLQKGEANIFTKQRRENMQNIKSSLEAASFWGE

[10] = molecular target: Interleukin-1 receptor-associated kinase 1 (Homo sapiens) (UniProt P51617); experiment: Inhibition of IRAK1 (unknown origin) assessed as remaining activity at 1 uM by Kinome scan method relative to control

Sequence of Interleukin-1 receptor-associated kinase 3 (Homo sapiens) (Q9Y616 whole entry): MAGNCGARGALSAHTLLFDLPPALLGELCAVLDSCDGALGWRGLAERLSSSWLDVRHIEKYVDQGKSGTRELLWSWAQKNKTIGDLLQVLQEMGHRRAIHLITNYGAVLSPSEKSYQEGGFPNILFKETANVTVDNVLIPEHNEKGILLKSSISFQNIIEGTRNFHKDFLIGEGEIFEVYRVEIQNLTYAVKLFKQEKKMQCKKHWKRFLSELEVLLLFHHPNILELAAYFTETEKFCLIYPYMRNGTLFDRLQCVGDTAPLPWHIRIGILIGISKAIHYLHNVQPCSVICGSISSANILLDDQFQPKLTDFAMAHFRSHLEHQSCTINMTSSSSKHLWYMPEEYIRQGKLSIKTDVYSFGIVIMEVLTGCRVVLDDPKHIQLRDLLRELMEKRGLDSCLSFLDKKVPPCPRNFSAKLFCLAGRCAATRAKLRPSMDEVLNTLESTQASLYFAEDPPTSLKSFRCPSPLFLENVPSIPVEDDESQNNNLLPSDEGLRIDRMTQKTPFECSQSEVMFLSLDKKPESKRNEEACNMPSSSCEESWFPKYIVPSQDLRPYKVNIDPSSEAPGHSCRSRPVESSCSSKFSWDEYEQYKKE

Compound | Activity [1] [%] | Activity [2] [%] | Activity [3] [%] | Activity [4] [%] | Activity [5] [%] | Activity [6] [%] | Activity [7] [%] | Activity [8] [%] | Activity [9] [%] | Activity [10] [%]
Nc1ccccc1Nc1ccc2c(c1)CCc1ccccc1C2=O | 90 | 93 | 87 | 98 | 87 | 98 | 96 | 94 | 85 | 75
O=C1c2ccc(Nc3ccc(F)cc3F)cc2CCc2ccc(OC[C@H](O)CO)cc21 [Skepinone-L] | 97 | 99 | 96 | 85 | 100 | 94 | 91 | 100 | 81 | 100
